Data as given in US20010048964A1, “Low calorie fat compositions” (priority 2000, published 2001).

Tests used:
[1] = target: T1, porcine lipase (Sus scrofa, UniProt P00591); test: Hydrolysis by pancreatic lipase, organic solvent system; assay type: in vitro ADME; conditions: organic solvent (t-amyl alcohol), 30° C., 20 h
T1 sequence (P00591 1-450): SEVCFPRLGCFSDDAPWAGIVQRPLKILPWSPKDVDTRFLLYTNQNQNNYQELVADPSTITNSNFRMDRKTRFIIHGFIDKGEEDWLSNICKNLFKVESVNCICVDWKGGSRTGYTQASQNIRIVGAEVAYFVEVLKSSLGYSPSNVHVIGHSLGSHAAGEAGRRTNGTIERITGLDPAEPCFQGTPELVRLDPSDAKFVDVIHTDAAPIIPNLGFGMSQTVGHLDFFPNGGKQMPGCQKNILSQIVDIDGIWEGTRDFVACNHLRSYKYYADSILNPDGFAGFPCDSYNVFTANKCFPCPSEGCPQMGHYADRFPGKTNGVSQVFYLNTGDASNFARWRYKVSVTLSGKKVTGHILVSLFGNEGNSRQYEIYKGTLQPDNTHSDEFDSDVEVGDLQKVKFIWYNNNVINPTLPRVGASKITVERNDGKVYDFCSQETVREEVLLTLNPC
Description: (§1) The digestibility of the acylated triglycerides of the present invention were done to compare with triolein. The in-vitro assays were done using two emulsion systems as in the following procedure.
Each digest was carried out with 300 mg of the fat/fat substitute, 9 ml of the t-amyl alcohol, 0.5 ml of Bis-Tris propane buffer (10 mM, pH 7.8) and 0.5 ml of porcine lipase (20 mg/ml). The reaction was incubated at 30° C. and the reaction stopped by adding 1 ml aliquots to 3 ml of isopropanol/heptane/sulfuric acid (40/10/1). The product was extracted with heptane and analyzed by GC and GC-MS at 360° C. The hydrolysis of the acetylated castor (hydrogenated) was 48% complete in 20 h and triolein was hydrolyzed to 69%.

[2] = target: T1, porcine lipase; test: Hydrolysis by pancreatic lipase, aqueous emulsion system; assay type: in vitro ADME; conditions: aqueous emulsion (HMPC, sodium cholate), 30 ° C.
Description: as §1
A mixture of 300 mg of the fat/fat substitute, 4 ml of Bis-Tris propane buffer (10 mM, pH 7.8), 5 ml of hydroxyproylmethylcellulose (HMPC, […]), 0.5 ml of sodium cholate (0.1M) were sonicated to disperse the fats and incubated at 30 ° C. Porcine lipase (0.5 ml, 20 mg/ml) was added. The analysis of the reaction was carried out as in the above organic solution assay. Acetylated castor (hydrogenated) was 70% hydrolyzed while triolein under similar conditions was 93% hydrolyzed.

[3] = Caloric availability, two week feeding study; assay type: in vivo; conditions: young male Sprague-Dawley rats, modified AIN-76 diet at 15% added fat level
Description: Caloric availability of the compounds are evaluated by the two week feeding study of young male Sprague-Dawley rats weighing approximately 50 to 60 gm. This caloric availability study as described described by Finley, et al. ((1994) J. Agric. Food Chem. 42:489-494) was modified to use smaller amounts of test materials. The feeding study was conducted using a modified AIN-76 diet at 15% added fat level and five test animals are used for each compound. Weight gains are monitored at days 0,3,7,10 and 14.

hydrolysis [1]	hydrolyzed [2]	Compound	caloric availability [3]
48%	70%	CCCCCCC(CCCCCCCCCCC(=O)OCC(COC(=O)CCCCCCCCCCC(CCCCCC)OC(C)=O)OC(=O)CCCCCCCCCCC(CCCCCC)OC(C)=O)OC(C)=O (stereo not shown) [acetylated castor (hydrogenated), 12-acetyloxyoctadecanoic acid triglyceride]	6 kcal/g
–	–	CCCCCCCCCCCCCCCCCC(=O)OC(CCCCCC)CCCCCCCCCCCCC(=O)OCC(COC(=O)CCCCCCCCCCCCC(CCCCCC)OC(=O)CCCCCCCCCCCCCCCCC)OC(=O)CCCCCCCCCCCCCCCCC (stereo not shown) [distearoyl lesquerella oil-hydrogenated, 1,3-bis(14-octadecanoyloxy)eicosanoic acid-2-octadecanoic acid triglyceride]	5.6 kcal/g
